From publication PMC10149936, “Cofilin activation in pancreatic acinar cells plays a pivotal convergent role for mediating CCK-stimulated enzyme secretion and growth” (Frontiers in Physiology, 2023)

Columns and labels:
[1] = system: SSH1 (pS978) in pancreatic acini; assay: SSH1 phosphorylation (pS978 SSH1 Western blot) in isolated rat pancreatic acini; type: cell-based; conditions: for SSH1 dephosphorylation (activation) at short incubation: 0.5 min and 1.5 min, data not shown; for SSH1 phosphorylation (i.e., deactivation), maximum increment: 30 min
Procedure: Pancreatic acini preparations were obtained by collagenase digestion as previously described ([Bissonnette et al., 1984]; [Sato et al., 1989]; [Ramos-Alvarez and Jensen, 2018]). […] Isolated acini and CCK1-R/Panc-1 cells (M&M 2.2.1) were also preincubated with two SSH1 inhibitors, D3 (25 μM, 1 h) ([Li et al., 2015]) or SE (50 μM, 3 h for acini; 24 h for CCK1-R/Panc-1 cells) ([Lee et al., 2017]). […] Cells were lysed in lysis buffer (50 mM Tris/HCl pH 7.5, 150 mM NaCl, 1% Triton X-100, 1% deoxycholate, 0.1% sodium azide, 1 mM EGTA, 0.4 mM EDTA, 0.2 mM sodium orthovanadate, 1 mM PMSF, and one protease inhibitor tablet per 10 mL). After sonication, lysates were centrifuged at 10,000×g for 15 min at 4°C and protein concentration was measured using the Bio-Rad protein assay reagent. Finally, cells were processed as below for Western blotting.
Western blotting and immunoprecipitation were performed as described previously ([Ramos-Alvarez and Jensen, 2018]). Whole cell lysates were subjected to SDS-PAGE using 4%–20% Tris–Glycine gels. […] Finally, membranes were then washed again twice in blocking buffer for 4 min, twice in washing buffer for 4 min, incubated for 4 min with chemiluminescence detection reagents. The intensity of the protein bands was measured using GeneTools software from Syngene, which were assessed in the linear detection range.
FIGURE 2 Time course of phosphorylation of Lim kinase (LIMK) (A), cofilin (B) and Slingshot 1 phosphatase (SSH1) (C) induced by CCK-8 and TPA. Isolated pancreatic acini were incubated with either no addition (control), CCK-8 (0.3 and 100 nM) or TPA (1 µM) for the indicated periods of time and then lysed. Western blots were analyzed using anti-pT508 LIMK, anti-pS3 cofilin and anti-pS978 SSH1, which […] the activation states of LIMK, cofilin and SSH1. Bands were visualized using chemiluminescence and quantified by densitometry. Top: Results of a representative blot of three independent experiments are shown. Bottom: Means ± S.E. of at least 3 independent experiments. Results are expressed as % of basal stimulation of the control group. *, p < 0.05 compared to the control group.

[2] = system: cofilin / total PP2A association; assay: co-immunoprecipitation of cofilin with total PP2A in pancreatic acini; type: cell-based, rat; conditions: for increase in total PP2A co-immunoprecipitation with cofilin: CCK-8 100 nM 3 min, TPA 1 µM 5 min, Figure 8B
Procedure: For co-immunoprecipitation, 600 μg of protein was incubated with 15 μL of the anti-cofilin antibody (Santa Cruz Biotechnology, Inc. Dallas, TX) and 25 μL of protein A/G agarose beads (Thermo-Fisher Scientific. Waltham, MA) overnight at 4°C under agitation. Samples were washed three times with lysis buffer, re-suspended in 12.5 μL of Sample Buffer, Laemlii 2x concentrate and boiled for 5 min before western blotting.
FIGURE 6 Effect of CCK-8 (100 nM) to alter co-immunoprecipitation of cofilin with total PP2A (A) or PP1 (B). Isolated pancreatic acini were incubated in the absence or presence of CCK-8 (100 nM) for 3 min and then lysed. Equal amounts of protein were co-immunoprecipitated with an anti-cofilin (Santa Cruz, SC-376476) and then subjected to Western blots using anti-PP2A and anti-PP1. Bands were visualized using chemiluminescence and quantified by densitometry. Top: Results of a representative blot of four independent experiments are shown. Bottom: Means ± S.E. of at least 4 independent experiments. Results are expressed as % of basal stimulation of the control group. N.S., No significant. Effect of the lysate, lysis buffer, Protein A/G agarose beads (beads) or Anti-cofilin antibody (Anti-cofilin ab) individually on phospho and total cofilin (pS3), phospho and total PP2A, phospho and total PP1 and tubulin. Lysates were analyzed using cofilin (pS3), Total cofilin, PP2A (pY307), Total PP2A, PP1(pT320), Total PP1 and tubulin. Antibody detecting tubulin was used to verify loading of equal amounts of protein.
FIGURE 8 Effect of a PKD inhibitor, kbNB, or a Src inhibitor, PP2, on the ability of CCK-8 (100 nM) and TPA (1 µM) to stimulate the association of cofilin with either phospho-PP2A (A) or total PP2A (B). Isolated pancreatic acini were incubated in the absence or presence of kbNB (0.1 µM) or PP2 (10 µM) for 3 h and then incubated with no addition (control), CCK-8 (100 nM, 3 min) or TPA (1 μM, 5 min), and then lysed. […] Bands were visualized using chemiluminescence and quantified by densitometry. […] Results are expressed as % of basal stimulation of the control group. […]

Compound | SSH1 dephosphorylation (activation) at short incubation [1] | SSH1 phosphorylation (i.e., deactivation), maximum increment ([1]; TPA 1 µM) | increase in total PP2A co-immunoprecipitation with cofilin [2] | SSH1 phosphorylation (i.e., deactivation), maximum increment ([1]; CCK-8 100 nM) | increase in PP2A immunoprecipitation with cofilin ([2]; CCK-8 100 nM, 3 min, Figure 6)
CCCCCCCCCCCCCC(=O)O[C@@H]1[C@@H](C)[C@@]2(O)[C@@H](C=C(CO)C[C@]3(O)C(=O)C(C)=C[C@@H]23)[C@H]2C(C)(C)[C@]12OC(C)=O [TPA, 12-O-tetradecanoylphobol-13-acetate] | no dephosphorylation of SSH1 (activation) was seen | 151% | 40% |  | 
COOH-terminal octapeptide of cholecystokinin [CCK-8] | no dephosphorylation of SSH1 (activation) was seen |  | 40% | 162% | 25%
